This is an account of results in ChEMBL document CHEMBL3045927, “Synthesis of 4-methyl-1,2,3-thiadiazole derivatives via Ugi reaction and their biological activities” (2010).

Molecules are shown by their SMILES.

Common to all, as to assay type: functional
The test system of one assay is Pyricularia grisea. Kind of assay: Fungicidal activity against Magnaporthe grisea at 50 ug/ml by growth inhibition method. The arrangement: scale not given: the % may be the effect or the level left.
The test system of another assay is Thanatephorus cucumeris. Kind of assay: Fungicidal activity against Thanatephorus cucumeris at 50 ug/ml by growth inhibition method. The arrangement: scale not given: the % may be the effect or the level left.
The subject of assay [1] is Botryosphaeria berengeriana. Kind of assay: Fungicidal activity against Botryosphaeria berengeriana at 50 ug/ml by growth inhibition method. Details: scale not given: the % may be the effect or the level left.
Another assay concerns Alternaria solani. Kind of assay: Fungicidal activity against Alternaria solani at 50 ug/ml by growth inhibition method. Details: scale not given: the % may be the effect or the level left.
Another assay relates to Mycosphaerella arachidis. Kind of assay: Fungicidal activity against Mycosphaerella arachidis at 50 ug/ml by growth inhibition method. Details: scale not given: the % may be the effect or the level left.
The subject of a further assay is Fusarium oxysporum. Kind of assay: Fungicidal activity against Fusarium oxysporum at 50 ug/ml by growth inhibition method. Details: scale not given: the % may be the effect or the level left.
Another assay relates to Cercospora beticola. Kind of assay: Fungicidal activity against Cercospora beticola at 50 ug/ml by growth inhibition method. Details: scale not given: the % may be the effect or the level left.
Assay [2] deals with Tobacco mosaic virus. Kind of assay: In vitro antiviral activity against Tobacco mosaic virus (TMV) infected tobacco leaves at 100 ug/ml.
Assay [3] concerns Tobacco mosaic virus. Put plainly: In vitro antiviral activity against Tobacco mosaic virus (TMV) infected tobacco leaves at 500 ug/ml.
The subject of another assay is Phytophthora infestans. Put plainly: Fungicidal activity against Phytophthora infestans at 50 ug/ml by growth inhibition method. The arrangement: scale not given: the % may be the effect or the level left.
For another assay, the system named is Rhizoctonia solani. Kind of assay: Fungicidal activity against Rhizoctonia solani at 50 ug/ml by growth inhibition method. The arrangement: scale not given: the % may be the effect or the level left.
A further assay relates to Colletotrichum lagenaria. Put plainly: Fungicidal activity against Colletotrichum lagenaria at 50 ug/ml by growth inhibition method. Details: scale not given: the % may be the effect or the level left.
The subject of assay [4] is Nicotiana tabacum. Kind of assay: Induction of systemic acquired resistance activity in TMV infected-Nicotiana tabacum (tobacco) leaves at 50 ug/ml.
For assay [5], the system named is Nicotiana tabacum. Kind of assay: Induction of systemic acquired resistance activity in TMV infected-Nicotiana tabacum (tobacco) leaves at 100 ug/ml.
The subject of assay [6] is Tobacco mosaic virus. Put plainly: In vivo antiviral activity against Tobacco mosaic virus (TMV) infected tobacco leaves assessed as inactivation effect at 100 ug/ml co-treated with virus for 30 min before inoculation onto leaves measured at 2-3 days after viral challenge.
The subject of assay [7] is Tobacco mosaic virus. Put plainly: In vivo antiviral activity against Tobacco mosaic virus (TMV) infected tobacco leaves assessed as inactivation effect at 500 ug/ml co-treated with virus for 30 min before inoculation onto leaves measured at 2-3 days after viral challenge.
The test system of assay [8] is Tobacco mosaic virus. Kind of assay: In vivo antiviral activity against Tobacco mosaic virus (TMV) infected tobacco leaves assessed as curative effect at 100 ug/ml treated after viral inoculation measured at 2-3 days after viral challenge.
Assay [9] concerns Tobacco mosaic virus. Put plainly: In vivo antiviral activity against Tobacco mosaic virus (TMV) infected tobacco leaves assessed as curative effect at 500 ug/ml treated after viral inoculation measured at 2-3 days after viral challenge.
Assay [10] concerns Tobacco mosaic virus. Kind of assay: In vivo antiviral activity against Tobacco mosaic virus (TMV) infected tobacco leaves assessed as protective effect at 100 ug/ml treated 12 hr before viral inoculation measured at 2-3 days after viral challenge.
For assay [11], the system named is Tobacco mosaic virus. Put plainly: In vivo antiviral activity against Tobacco mosaic virus (TMV) infected tobacco leaves assessed as protective effect at 500 ug/ml treated 12 hr before viral inoculation measured at 2-3 days after viral challenge.

Take `Cc1ccc(N(C(=O)c2snnc2C)C(C(=O)NC2CCCCC2)c2ccc(O)cc2)cc1Cl` (centres undefined): the Activity stood at 41% in the assay on Pyricularia grisea; 37% with Thanatephorus cucumeris; 31% in assay [1]; 50% in the assay on Alternaria solani; 53% in the assay with Mycosphaerella arachidis; 38% in the assay on Fusarium oxysporum. The Activity in the assay with Cercospora beticola stood at 33%; in the assay on Phytophthora infestans, 32%; in the assay on Rhizoctonia solani it was 46%; in the assay with Colletotrichum lagenaria it was 8%. Besides, the inhibition at 100 µg/mL in the assay with Tobacco mosaic virus [2] worked out at 14%. In addition, testing at 500 µg/mL with Tobacco mosaic virus [3] gave an inhibition of 17%.
As to `Cc1ccc(N(C(=O)c2snnc2C)C(C(=O)NC2CCCCC2)c2ccccc2Cl)cc1Cl` (centres undefined), the Activity is recorded as 40% in the assay with Pyricularia grisea; 12% in the assay with Thanatephorus cucumeris; 13% in assay [1]; 26% with Alternaria solani; 48% in the assay with Mycosphaerella arachidis; 0% in the assay on Fusarium oxysporum. Also, the Activity is 27% in the assay with Cercospora beticola, 26% in the assay on Phytophthora infestans, 67% in the assay with Rhizoctonia solani and 5% in the assay with Colletotrichum lagenaria. In the assay with Tobacco mosaic virus [2], this compound showed an inhibition at 100 µg/mL of 19%. For the same compound, the inhibition at 500 µg/mL in the assay with Tobacco mosaic virus [3] is 20%.
Take `Cc1ccc(N(C(=O)c2snnc2C)C(C(=O)NC2CCCCC2)c2ccc(F)cc2)cc1Cl` (centres undefined): the Activity with Pyricularia grisea was determined as 25%; with Thanatephorus cucumeris, 12%; in assay [1], 26%; in the assay with Alternaria solani, 37%; in the assay with Mycosphaerella arachidis it was 26%; in the assay on Fusarium oxysporum, 0%. For the same compound, the Activity was 27% with Cercospora beticola, 35% in the assay on Phytophthora infestans, 67% in the assay on Rhizoctonia solani and 5% with Colletotrichum lagenaria. Further, testing at 100 µg/mL in the assay on Tobacco mosaic virus [2] gave an inhibition of 15%. Further, in the assay on Tobacco mosaic virus [3], at 500 µg/mL the inhibition was 16%.
As for `Cc1ccc(N(C(=O)c2snnc2C)C(C(=O)NC2CCCCC2)c2cccc(F)c2)cc1Cl` (centres undefined), the Activity with Pyricularia grisea was found to be 15%; in the assay with Thanatephorus cucumeris, 17%; in [1], 22%; in the assay on Alternaria solani, 21%; with Mycosphaerella arachidis, 39%; with Fusarium oxysporum it was 21%. Further, the Activity in the assay on Cercospora beticola came to 27%; with Phytophthora infestans it was 21%; with Rhizoctonia solani, 69%; in the assay with Colletotrichum lagenaria it was 9%. In the assay with Tobacco mosaic virus [2], this compound displayed an inhibition at 100 µg/mL of 9%. The compound also returned an inhibition at 500 µg/mL with Tobacco mosaic virus [3] of 18%.
Consider `Cc1ccc(N(C(=O)c2snnc2C)C(C(=O)NC2CCCCC2)c2cccc(O)c2)cc1Cl` (centres undefined), for which the Activity in the assay with Pyricularia grisea was found to be 29%; in the assay on Thanatephorus cucumeris, 22%; in assay [1], 48%; with Alternaria solani, 56%; with Mycosphaerella arachidis, 47%; in the assay with Fusarium oxysporum it was 34%. Moreover, the Activity in the assay on Cercospora beticola turned out to be 44%; in the assay on Phytophthora infestans, 24%; with Rhizoctonia solani it was 43%; in the assay with Colletotrichum lagenaria, 44%. The inhibition at 100 µg/mL with Tobacco mosaic virus [2] is 24%. Besides, the inhibition at 500 µg/mL with Tobacco mosaic virus [3] stood at 35%.
As for `Cc1ccc(N(C(=O)c2snnc2C)C(C(=O)NC2CCCCC2)c2cccc(Cl)c2)cc1Cl` (centres undefined), the Activity with Pyricularia grisea is reported as 20%; in the assay with Thanatephorus cucumeris it was 12%; in assay [1], 26%; in the assay with Alternaria solani, 21%; in the assay on Mycosphaerella arachidis it was 39%; in the assay with Fusarium oxysporum, 11%. The Activity in the assay with Cercospora beticola worked out at 18%; with Phytophthora infestans it was 21%; in the assay on Rhizoctonia solani, 65%; with Colletotrichum lagenaria, 9%. In addition, in the assay with Tobacco mosaic virus [2], the inhibition at 100 µg/mL was determined as 21%. This compound also came in with an inhibition at 500 µg/mL in the assay on Tobacco mosaic virus [3] of 29%.
As to `NC(=O)c1ncn([C@@H]2O[C@H](CO)[C@@H](O)[C@H]2O)n1` [RIBAVIRIN], the Activity turned out to be 40% in the assay on Nicotiana tabacum [4]; 10% in the assay with Nicotiana tabacum [5]; 57% in the assay on Tobacco mosaic virus [6]; 71% in the assay with Tobacco mosaic virus [7]; 14% in the assay on Tobacco mosaic virus [8]; 46% in the assay on Tobacco mosaic virus [9]. Further, the values for the Activity in the assay with Tobacco mosaic virus [10] and in the assay on Tobacco mosaic virus [11] were 40% and 44%, respectively. In the assay on Tobacco mosaic virus [2], this compound showed an inhibition at 100 µg/mL of 28%. In addition, in the assay with Tobacco mosaic virus [3], the inhibition at 500 µg/mL turned out to be 38%.
With `Cc1ccc(N(C(=O)c2snnc2C)C(C(=O)NC2CCCCC2)c2ccccc2[N+](=O)[O-])cc1Cl` (centres undefined), the Activity in the assay on Pyricularia grisea amounted to 24%; in the assay with Thanatephorus cucumeris it was 22%; in assay [1], 41%; in the assay on Alternaria solani, 35%; in the assay on Mycosphaerella arachidis, 16%; in the assay with Fusarium oxysporum, 22%. Moreover, the Activity in the assay with Cercospora beticola is recorded as 11%; in the assay with Phytophthora infestans it was 0%; in the assay with Rhizoctonia solani, 29%; with Colletotrichum lagenaria it was 32%. In the assay on Tobacco mosaic virus [2], this compound yielded an inhibition at 100 µg/mL of 15%. The inhibition at 500 µg/mL in the assay with Tobacco mosaic virus [3] stood at 47%.
For `Cc1ccc(N(C(=O)c2snnc2C)C(C(=O)NC2CCCCC2)c2ccccc2)cc1Cl` (centres undefined), the Activity with Pyricularia grisea is recorded as 40%; with Thanatephorus cucumeris, 17%; in assay [1], 22%; in the assay on Alternaria solani it was 32%; in the assay on Mycosphaerella arachidis it was 61%; in the assay with Fusarium oxysporum, 25%. Further, the Activity worked out at 36% in the assay on Cercospora beticola, 32% with Phytophthora infestans, 63% in the assay with Rhizoctonia solani and 9% in the assay on Colletotrichum lagenaria. 100 µg/mL produced 19% inhibition in the assay on Tobacco mosaic virus [2]. Also, the inhibition at 500 µg/mL with Tobacco mosaic virus [3] came out at 24%.
On to `Cc1ccc(N(C(=O)c2snnc2C)C(C(=O)NC2CCCCC2)c2ccc([N+](=O)[O-])cc2)cc1Cl` (centres undefined), for which the Activity was determined as 18% in the assay with Pyricularia grisea; 25% in the assay with Thanatephorus cucumeris; 38% in assay [1]; 35% in the assay on Alternaria solani; 16% in the assay on Mycosphaerella arachidis; 22% in the assay on Fusarium oxysporum. The Activity in the assay with Cercospora beticola is recorded as 11%; with Phytophthora infestans, 12%; in the assay with Rhizoctonia solani, 29%; with Colletotrichum lagenaria, 24%. The same compound gave an inhibition at 100 µg/mL in the assay with Tobacco mosaic virus [2] of 26%. This compound displayed an inhibition at 500 µg/mL in the assay on Tobacco mosaic virus [3] of 32%.
In the case of `Cc1ccc(N(C(=O)c2snnc2C)C(C(=O)NC2CCCCC2)c2cccc(C(F)(F)F)c2)cc1Cl` (centres undefined), the Activity in the assay with Pyricularia grisea is 24%; in the assay with Thanatephorus cucumeris, 30%; in assay [1], 31%; in the assay on Alternaria solani, 32%; in the assay on Mycosphaerella arachidis, 21%; in the assay on Fusarium oxysporum, 31%. Also, the Activity was determined as 22% with Cercospora beticola, 20% with Phytophthora infestans, 20% in the assay with Rhizoctonia solani and 20% with Colletotrichum lagenaria. The compound further returned an inhibition at 100 µg/mL in the assay on Tobacco mosaic virus [2] of 22%. Also, in the assay with Tobacco mosaic virus [3], at 500 µg/mL the inhibition was 19%.
Take `Cc1ccc(C(C(=O)NC2CCCCC2)N(C(=O)c2snnc2C)c2ccc(C)c(Cl)c2)cc1` (centres undefined): the Activity in the assay with Pyricularia grisea is listed as 50%; with Thanatephorus cucumeris, 24%; in [1], 26%; in the assay with Alternaria solani, 42%; in the assay with Mycosphaerella arachidis it was 35%; with Fusarium oxysporum it was 18%. Moreover, the Activity stood at 27% in the assay with Cercospora beticola, 26% in the assay on Phytophthora infestans, 69% in the assay on Rhizoctonia solani and 18% in the assay with Colletotrichum lagenaria. Moreover, in the assay with Tobacco mosaic virus [2], the inhibition at 100 µg/mL stood at 25%. The compound also registered an inhibition at 500 µg/mL in the assay with Tobacco mosaic virus [3] of 40%.
Turning to `Cc1ccc(NC(=O)c2snnc2C)cc1Cl` [TIADINIL], the Activity was 47% in the assay with Nicotiana tabacum [4]; 49% in the assay with Nicotiana tabacum [5]; 70% in the assay with Tobacco mosaic virus [6]; 70% in the assay on Tobacco mosaic virus [7]; 12% in the assay with Tobacco mosaic virus [8]; 44% with Tobacco mosaic virus [9]. Further, the Activity is on record as 35% in the assay on Tobacco mosaic virus [10] and 48% in the assay with Tobacco mosaic virus [11]. Further, the inhibition at 100 µg/mL in the assay on Tobacco mosaic virus [2] was 37%. The compound also displayed an inhibition at 500 µg/mL in the assay with Tobacco mosaic virus [3] of 51%.
Regarding `Cc1cccc(C(C(=O)NC2CCCCC2)N(C(=O)c2snnc2C)c2ccc(C)c(Cl)c2)c1` (centres undefined), the Activity with Pyricularia grisea came out at 10%; in the assay on Thanatephorus cucumeris, 24%; in assay [1], 35%; in the assay on Alternaria solani, 37%; in the assay on Mycosphaerella arachidis it was 17%; with Fusarium oxysporum, 18%. Further, the Activity stood at 27% with Cercospora beticola, 35% with Phytophthora infestans, 63% in the assay on Rhizoctonia solani and 14% with Colletotrichum lagenaria. In the assay on Tobacco mosaic virus [2], this compound had an inhibition at 100 µg/mL of 11%. In addition, at 500 µg/mL the inhibition in the assay on Tobacco mosaic virus [3] was 19%.

One may read the inhibition as the share of the control response that was lost under treatment.
